Laboratory results: PubChem BioAssay AID200 (DTP/NCI, 2004)
Values joined by “and” are separate entries in the source; they are usually repeats but may differ in a detail not shown here. Equal entries are not always repeated. Inconclusive results and toxic doses are left out. Where a SMILES comes first, the peptide text is derived from it.

Tested on: B6C3F1 mice, B16 melanoma ip, median survival T/C
Assay: NCI In Vivo Anticancer Drug Screen. Data for tumor model B16 Melanoma (intraperitoneal) in B6C3F1 mice
Settings: endpoint: median survival time, schedule: Q01DX009 (ip), higher = longer survival
Outline: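 Transplantable tumor in mice; treated vs vehicle control groups; survival or tumor size measured; value = T/C ratio.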

[1] = dose: 12.5 mg/kg/injection, vehicle: saline
[2] = dose: 25.0 mg/kg/injection, vehicle: saline
[3] = dose: 50.0 mg/kg/injection, vehicle: saline
[4] = dose: 12.5 mg/kg/injection, vehicle: Klucel (hydroxypropylcellulose) (HPC)
[5] = dose: 25.0 mg/kg/injection, vehicle: Klucel (hydroxypropylcellulose) (HPC)
[6] = dose: 50.0 mg/kg/injection, vehicle: Klucel (hydroxypropylcellulose) (HPC)
[7] = dose: 100.0 mg/kg/injection, vehicle: Klucel (hydroxypropylcellulose) (HPC)
[8] = dose: 200.0 mg/kg/injection, vehicle: Klucel (hydroxypropylcellulose) (HPC)
[9] = dose: 50.0 mg/kg/injection, vehicle: saline with Tween-80
[10] = dose: 100.0 mg/kg/injection, vehicle: saline with Tween-80
[11] = dose: 200.0 mg/kg/injection, vehicle: saline with Tween-80
[12] = dose: 400.0 mg/kg/injection, vehicle: saline with Tween-80
[13] = dose: 25.0 mg/kg/injection, vehicle: saline with Tween-80
[14] = dose: 400.0 mg/kg/injection, vehicle: Klucel (hydroxypropylcellulose) (HPC)

COc1cc([C@@H]2c3cc4c(cc3[C@H](O)[C@H]3COC(=O)[C@H]23)OCO4)cc(OC)c1OC
T/C (dose: 0.36 mg/kg/injection, vehicle: Klucel (hydroxypropylcellulose) (HPC)): 116 % of control
T/C (dose: 0.6 mg/kg/injection, vehicle: Klucel (hydroxypropylcellulose) (HPC)): 102 % of control
T/C (dose: 1.0 mg/kg/injection, vehicle: Klucel (hydroxypropylcellulose) (HPC)): 107 % of control
T/C (dose: 1.67 mg/kg/injection, vehicle: Klucel (hydroxypropylcellulose) (HPC)): 103 % of control
T/C (dose: 2.0 mg/kg/injection, vehicle: Klucel (hydroxypropylcellulose) (HPC)): 123 % of control
T/C (dose: 2.78 mg/kg/injection, vehicle: Klucel (hydroxypropylcellulose) (HPC)): 114 % of control
T/C (dose: 4.0 mg/kg/injection, vehicle: Klucel (hydroxypropylcellulose) (HPC)): 114 % of control

O=CC(=O)c1ccc(O)cc1
T/C (dose: 6.25 mg/kg/injection, vehicle: saline): 94 % of control
T/C [1]: 99 % of control
T/C [2]: 108 % of control
T/C [3]: 120 % of control

O=C1CC2(C(=O)N1CN1CCCCC1)c1ccccc1-c1ccccc12
T/C [4]: 91 % of control
T/C [5]: 95 % of control
T/C [6]: 95 % of control
T/C [7]: 110 % of control
T/C [8]: 92 % of control

CC(=O)/C(=C\c1ccc(Cl)c(Cl)c1)C(=O)CCN(C)C
T/C [1]: 94 % of control
T/C [2]: 93 % of control
T/C [3]: 89 % of control

CCCCCCCC(=O)N/N=C(\CO)[C@]1(O)Cc2c(O)c3c(c(O)c2[C@@H](OC2CC(N)C(O)C(C)O2)C1)C(=O)c1c(OC)cccc1C3=O (some centres undefined)
T/C (dose: 1.5 mg/kg/injection, vehicle: saline): 154 % of control
T/C (dose: 1.5 mg/kg/injection, vehicle: water): 171 % of control
T/C (dose: 3.0 mg/kg/injection, vehicle: saline): 196 % of control
T/C (dose: 3.0 mg/kg/injection, vehicle: water): 199 % of control
T/C (dose: 6.0 mg/kg/injection, vehicle: saline): 216 % of control
T/C (dose: 6.0 mg/kg/injection, vehicle: water): 320 % of control
T/C (dose: 12.0 mg/kg/injection, vehicle: saline): 208 % of control
T/C (dose: 12.0 mg/kg/injection, vehicle: water): 320 % of control
T/C (dose: 24.0 mg/kg/injection, vehicle: saline): 208 % of control

NC(=O)CC(N)C(=O)O (centres undefined)
T/C [9]: 108 % of control
T/C [10]: 100 % of control
T/C [11]: 100 % of control
T/C [12]: 105 % of control
T/C (dose: 800.0 mg/kg/injection, vehicle: saline with Tween-80): 120 % of control
T/C (dose: 1600.0 mg/kg/injection, vehicle: saline with Tween-80): 118 % of control

CSC1SCC2C(=O)N(C)C(C(C)C)C(=O)OCC(NC(=O)c3cnc4ccccc4n3)C(=O)NC(C)C(=O)N(C)C1C(=O)N(C)C(C(C)C)C(=O)OCC(NC(=O)c1cnc3ccccc3n1)C(=O)NC(C)C(=O)N2C (centres undefined)
T/C (dose: 15.0 micrograms/kg/injection, vehicle: saline with Tween-80): 106 % of control
T/C (dose: 30.0 micrograms/kg/injection, vehicle: saline): 176 % of control
T/C (dose: 32.0 micrograms/kg/injection, vehicle: saline): 176 % of control
T/C (dose: 60.0 micrograms/kg/injection, vehicle: saline with Tween-80): 121 % of control
T/C (dose: 60.0 micrograms/kg/injection, vehicle: saline): 172 % of control
T/C (dose: 64.0 micrograms/kg/injection, vehicle: saline): 176 % of control
T/C (dose: 120.0 micrograms/kg/injection, vehicle: saline): 209 % of control
T/C (dose: 128.0 micrograms/kg/injection, vehicle: saline): 187 % of control
T/C (dose: 240.0 micrograms/kg/injection, vehicle: saline): 181 % of control
T/C (dose: 480.0 micrograms/kg/injection, vehicle: saline with Tween-80): 170 % of control

O=C(O)CNc1ccc(O)cc1
T/C [2]: 104 % of control
T/C [3]: 105 % of control
T/C (dose: 75.0 mg/kg/injection, vehicle: saline): 105 % of control
T/C (dose: 100.0 mg/kg/injection, vehicle: saline): 112 % of control and 121 % of control
T/C (dose: 150.0 mg/kg/injection, vehicle: saline): 105 % of control
T/C (dose: 200.0 mg/kg/injection, vehicle: saline): 100 % of control and 101 % of control

CC(C)n1cnc2c(Cl)ncnc21
T/C [13]: 88 % of control
T/C [9]: 104 % of control
T/C [10]: 87 % of control

C=Cc1cc(OC)c2c(c1)c(=O)oc1c2cc(OC)c2c(O)ccc(C3OC(C(C)O)C(O)C3O)c21 (centres undefined)
T/C [5]: 165 % of control

CC1[C@@H]2CC=C3[C@H]4CCC5Cc6nc7c(nc6C[C@@]5(C)C4CC(=O)[C@]32CO[C@]12OC(C)(C)CC2O)CC1CC[C@@H]2C3=C[C@H]4O[C@@]5(O[C@@](C)(CO)C[C@@H]5O)C(C)[C@@]4(O)[C@]3(C)[C@@H](O)CC2[C@]1(C)C7 (some centres undefined)
T/C (dose: 6.25 micrograms/kg/injection, vehicle: saline + alcohol): 101 % of control
T/C (dose: 12.5 micrograms/kg/injection, vehicle: saline + alcohol): 98 % of control
T/C (dose: 25.0 micrograms/kg/injection, vehicle: saline + alcohol): 98 % of control
T/C (dose: 50.0 micrograms/kg/injection, vehicle: saline + alcohol): 102 % of control

CC(C)(C)OC(=O)N(C=O)C(Cc1c[nH]c2ccccc12)C(=O)O (centres undefined)
T/C [7]: 94 % of control
T/C [8]: 88 % of control
T/C [14]: 86 % of control

O=C(O)CNC(=O)C(Cc1ccccc1)NC(=O)OCc1ccccc1 (centres undefined) (HELM PEPTIDE1{[O=C(OCc1ccccc1)[*:2]].[O=C(C(Cc1ccccc1)N[*:1])[*:2]].G}$$$$V2.0)
T/C [5]: 94 % of control
T/C [6]: 102 % of control
T/C [7]: 86 % of control and 94 % of control

COC1/C=C\C=C(/C)C(=O)NC2=CC(=O)C(NCCCl)=C(CC(C)CC(OC)C(O)C(C)/C=C(/C)C1OC(N)=O)C2=O (centres undefined)
T/C (dose: 3.0 mg/kg/injection, vehicle: DMSO): 109 % of control and 103 % of control
T/C (dose: 6.0 mg/kg/injection, vehicle: DMSO): 112 % of control and 106 % of control
T/C (dose: 12.0 mg/kg/injection, vehicle: DMSO): 112 % of control and 123 % of control
T/C (dose: 24.0 mg/kg/injection, vehicle: DMSO): 109 % of control and 120 % of control

O=S(=O)(c1ccccc1)N1CN2CCN(C2)C1
T/C (dose: 12.5 mg/kg/injection, vehicle: saline with Tween-80): 96 % of control
T/C [13]: 94 % of control
T/C [9]: 108 % of control
T/C [10]: 112 % of control
T/C [11]: 119 % of control
T/C [12]: 122 % of control

CN(C)N=Nc1cccc2c1N(C)c1ccc(F)cc1S2
T/C (dose: 6.25 mg/kg/injection, vehicle: other): 103 % of control
T/C (dose: 12.5 mg/kg/injection, vehicle: other): 100 % of control
T/C (dose: 25.0 mg/kg/injection, vehicle: other): 108 % of control
T/C (dose: 50.0 mg/kg/injection, vehicle: other): 95 % of control
T/C (dose: 100.0 mg/kg/injection, vehicle: other): 102 % of control

CCCCCCNc1nc(NCCCCCC)c2[nH]c(NCCCCCC)nc2n1
T/C [13]: 107 % of control
T/C [9]: 101 % of control
T/C [10]: 96 % of control
T/C [11]: 91 % of control

C[Si](C)(C)OSc1ccccc1[N+](=O)[O-]
T/C [4]: 108 % of control
T/C [5]: 110 % of control
T/C [6]: 113 % of control
T/C [7]: 112 % of control
T/C [8]: 103 % of control
T/C [14]: 89 % of control
